The values below come from US20250361230A1, “LATS Inhibitors and Uses Thereof” (The USA, as Represented by the Secretary, Dept. of Heath …, priority 2022, published 2025).

SMILES strings stand for the structures.

Common to all, as to type: biochemical
One test concerns the target T1, LATS1 (Homo sapiens, UniProt O95835).
T1 sequence (O95835 1-1130): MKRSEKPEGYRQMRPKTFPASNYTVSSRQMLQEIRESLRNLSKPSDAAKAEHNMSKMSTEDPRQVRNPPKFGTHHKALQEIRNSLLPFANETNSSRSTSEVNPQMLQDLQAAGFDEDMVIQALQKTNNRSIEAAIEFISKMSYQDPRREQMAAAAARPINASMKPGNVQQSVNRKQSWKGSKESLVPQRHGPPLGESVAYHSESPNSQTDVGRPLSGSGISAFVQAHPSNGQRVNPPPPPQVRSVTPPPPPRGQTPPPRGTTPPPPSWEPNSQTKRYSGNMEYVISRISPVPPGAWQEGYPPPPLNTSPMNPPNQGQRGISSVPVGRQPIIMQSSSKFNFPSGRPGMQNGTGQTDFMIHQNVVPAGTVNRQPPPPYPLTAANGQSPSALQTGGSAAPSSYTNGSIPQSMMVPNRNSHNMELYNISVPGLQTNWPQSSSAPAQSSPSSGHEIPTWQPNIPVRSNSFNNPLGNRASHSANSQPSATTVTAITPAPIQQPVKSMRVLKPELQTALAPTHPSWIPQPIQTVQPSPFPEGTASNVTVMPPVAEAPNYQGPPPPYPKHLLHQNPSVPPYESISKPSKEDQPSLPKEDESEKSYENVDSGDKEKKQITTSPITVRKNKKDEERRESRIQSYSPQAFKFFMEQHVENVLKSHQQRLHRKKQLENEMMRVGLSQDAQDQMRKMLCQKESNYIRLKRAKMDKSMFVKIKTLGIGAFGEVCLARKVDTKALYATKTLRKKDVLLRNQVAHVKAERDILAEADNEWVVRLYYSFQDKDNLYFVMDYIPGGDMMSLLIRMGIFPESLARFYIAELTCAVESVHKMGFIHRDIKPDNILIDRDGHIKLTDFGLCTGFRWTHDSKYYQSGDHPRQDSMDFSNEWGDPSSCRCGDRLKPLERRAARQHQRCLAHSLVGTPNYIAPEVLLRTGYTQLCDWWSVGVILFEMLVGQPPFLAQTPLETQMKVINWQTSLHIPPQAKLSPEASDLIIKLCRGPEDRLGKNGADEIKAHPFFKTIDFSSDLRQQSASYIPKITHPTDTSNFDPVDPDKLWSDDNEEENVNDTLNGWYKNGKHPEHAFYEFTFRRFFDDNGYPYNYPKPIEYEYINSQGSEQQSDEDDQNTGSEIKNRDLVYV
The test is described as follows: RBC HotSpot kinase assay (33P-ATP, P81 filter-binding), LATS1. As to conditions: Table 28, biochemical kinase assay; read-out: LATS1 IC50. The method, boiled down: (§1)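 IC50 in nM was derived from 10-point, single-replicate titrations. Read-out was radiometric P81 filter binding following a 2 h room-temperature reaction with 33P-ATP, after 20 min compound preincubation.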

For a further test, the target named is T2, LATS2 (Homo sapiens, UniProt Q9NRM7).
T2 sequence (Q9NRM7 1-1088): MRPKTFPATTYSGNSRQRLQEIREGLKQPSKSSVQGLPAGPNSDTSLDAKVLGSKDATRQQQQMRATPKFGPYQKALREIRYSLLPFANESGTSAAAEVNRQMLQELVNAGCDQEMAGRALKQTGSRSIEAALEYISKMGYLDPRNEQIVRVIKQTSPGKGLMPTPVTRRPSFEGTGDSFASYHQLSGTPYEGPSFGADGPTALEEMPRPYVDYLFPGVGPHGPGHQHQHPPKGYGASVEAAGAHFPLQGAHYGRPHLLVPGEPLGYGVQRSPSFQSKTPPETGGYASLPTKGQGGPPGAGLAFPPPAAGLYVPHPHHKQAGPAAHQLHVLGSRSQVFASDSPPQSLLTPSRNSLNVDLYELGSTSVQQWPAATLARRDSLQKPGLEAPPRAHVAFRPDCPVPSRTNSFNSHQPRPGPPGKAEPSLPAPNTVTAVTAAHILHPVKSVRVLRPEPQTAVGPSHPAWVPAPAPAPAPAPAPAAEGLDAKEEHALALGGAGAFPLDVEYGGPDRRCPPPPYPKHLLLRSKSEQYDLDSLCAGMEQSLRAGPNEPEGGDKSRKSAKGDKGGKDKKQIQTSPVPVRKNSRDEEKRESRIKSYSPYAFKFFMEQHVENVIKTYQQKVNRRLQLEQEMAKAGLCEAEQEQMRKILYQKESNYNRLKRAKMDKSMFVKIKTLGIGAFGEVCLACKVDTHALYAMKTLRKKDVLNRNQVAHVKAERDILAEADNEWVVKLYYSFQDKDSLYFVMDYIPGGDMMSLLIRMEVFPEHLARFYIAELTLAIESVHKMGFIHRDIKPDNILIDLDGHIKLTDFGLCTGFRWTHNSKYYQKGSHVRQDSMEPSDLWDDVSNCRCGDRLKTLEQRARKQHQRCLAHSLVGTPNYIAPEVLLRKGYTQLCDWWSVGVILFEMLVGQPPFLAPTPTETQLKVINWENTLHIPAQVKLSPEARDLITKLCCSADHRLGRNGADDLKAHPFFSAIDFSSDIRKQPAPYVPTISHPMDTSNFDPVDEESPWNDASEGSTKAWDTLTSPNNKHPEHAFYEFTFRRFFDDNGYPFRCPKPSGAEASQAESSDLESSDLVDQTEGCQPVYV
The test is described as follows: RBC HotSpot kinase assay (33P-ATP, P81 filter-binding), LATS2. To be noted: Table 28, biochemical kinase assay; read-out: LATS2 IC50. The method, boiled down: as §1

In a further test the target is AKT (Homo sapiens, UniProt P31749). The test is described as follows: RBC HotSpot kinase assay (33P-ATP, P81 filter-binding), AKT. To be noted: Table 28, biochemical kinase assay; read-out: AKT IC50. The method, boiled down: as §1
AKT, sequence (P31749 whole entry): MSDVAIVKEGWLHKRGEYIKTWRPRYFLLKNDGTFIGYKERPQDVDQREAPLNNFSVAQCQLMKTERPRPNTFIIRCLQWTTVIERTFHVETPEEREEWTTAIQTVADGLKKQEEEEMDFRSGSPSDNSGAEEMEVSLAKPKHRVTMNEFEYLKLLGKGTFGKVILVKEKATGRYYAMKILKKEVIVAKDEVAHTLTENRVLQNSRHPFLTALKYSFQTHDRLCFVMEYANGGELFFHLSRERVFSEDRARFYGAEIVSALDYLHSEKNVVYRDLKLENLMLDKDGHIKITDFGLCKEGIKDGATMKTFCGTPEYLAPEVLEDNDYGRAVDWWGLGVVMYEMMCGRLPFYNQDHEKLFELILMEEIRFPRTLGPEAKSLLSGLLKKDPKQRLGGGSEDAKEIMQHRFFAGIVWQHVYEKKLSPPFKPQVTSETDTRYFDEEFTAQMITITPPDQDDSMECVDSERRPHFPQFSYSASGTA

As to `c1ccc(CNCc2ccc(-c3ccnc4[nH]ccc34)cc2)cc1` [Compound 274, N-(4-(1H-pyrrolo[2,3-b]pyridin-4-yl)benzyl)-1-phenylmethanamine], the values for the IC50 on LATS1, at LATS2 and at AKT were 36.6 nM, 60.5 nM and 2430 nM, respectively.
With `c1cc(-c2ccc(CN3CCCC3)cc2)c2cc[nH]c2n1` [Compound 277, 4-(4-(pyrrolidin-1-ylmethyl)phenyl)-1H-pyrrolo[2,3-b]pyridine], the figures for the IC50 at LATS1, at LATS2 and at AKT were 63 nM, 100 nM and 2200 nM, respectively.
For the compound `c1cc(-c2ccc(C3CCCN3)cc2)c2cc[nH]c2n1` (stereo not drawn) [Compound 278, 4-(4-(pyrrolidin-2-yl)phenyl)-1H-pyrrolo[2,3-b]pyridine], the figures for the IC50 on LATS1, on LATS2 and at AKT were 17 nM, 33 nM and 321 nM, respectively.
For `Fc1ccc(CNCc2ccc(-c3ccnc4[nH]ccc34)cc2)cc1` [Compound 279, N-(4-(1H-pyrrolo[2,3-b]pyridin-4-yl)benzyl)-1-(4-fluorophenyl) methanamine] the same measures were 9.8 nM, 29.3 nM and 1080 nM.
In the case of `Fc1cccc(CNCc2ccc(-c3ccnc4[nH]ccc34)cc2)c1` [Compound 280, N-(4-(1H-pyrrolo[2,3-b]pyridin-4-yl)benzyl)-1-(3-fluorophenyl) methanamine], the results for the IC50 at LATS1, at LATS2 and at AKT were 10.8 nM, 25.6 nM and 859 nM, respectively.
In the same order, the values of `CC(C)(O)C#Cc1cc(-c2ccnc3[nH]ccc23)ccc1CNCc1ccc(F)cc1` [Compound 281, 4-(2-(((4-fluorobenzyl)amino)methyl)-5-(1H-pyrrolo[2,3-b]pyridin-4-yl)phenyl)-2-methylbut-3-yn-2-ol] are 82.4 nM, 170 nM and 4620 nM.
Consider `Fc1ccc(CNCc2ccc(-c3ccnc4[nH]ccc34)cc2Cl)cc1` [Compound 282, N-(2-chloro-4-(1H-pyrrolo[2,3-b]pyridin-4-yl)benzyl)-1-(4-fluorophenyl) methanamine], for which the IC50 was 31.4 nM on LATS1, 59.2 nM at LATS2 and 3800 nM at AKT.
For `NCc1ccc(-c2ccnc3[nH]ccc23)cc1Cl` [Compound 283, (2-chloro-4-(1H-pyrrolo[2,3-b]pyridin-4-yl)phenyl) methanamine] the same measures were 8 nM, 20 nM and 732 nM.
In the same order, the values of `FC(F)(F)Oc1cccc(CNCc2ccc(-c3ccnc4[nH]ccc34)cc2)c1` [Compound 285, N-(4-(1H-pyrrolo[2,3-b]pyridin-4-yl)benzyl)-1-(3-(trifluoromethoxy)phenyl) methanamine] are 167 nM, 191 nM and 1990 nM.
`NCc1ccc(-c2ccnc3[nH]ccc23)c(C(F)(F)F)c1` [Compound 286, (4-(1H-pyrrolo[2,3-b]pyridin-4-yl)-3-(trifluoromethyl)phenyl) methanamine]: the values for the IC50 on LATS1, at LATS2 and at AKT were 5050 nM, 1260 nM and 3410 nM, respectively.
With `COC(=O)c1c[nH]c2nccc(-c3ccc([C@@]4(O)[C@H](C)CNC[C@@H]4C)c(C)c3)c12` [Compound 300, methyl 4-(4-((3S,4s,5R)-4-hydroxy-3,5-dimethylpiperidin-4-yl)-3-methylphenyl)-1H-pyrrolo[2,3-b]pyridine-3-carboxylate], the IC50 came out at 3.2 nM at LATS1, 1.6 nM on LATS2 and 282 nM at AKT.
Consider `CCc1cc(-c2ccnc3[nH]cc(F)c23)ccc1[C@@]1(O)[C@H](C)CNC[C@@H]1C` [Compound 302, (3S,4s,5R)-4-(2-ethyl-4-(3-fluoro-1H-pyrrolo[2,3-b]pyridin-4-yl)phenyl)-3,5-dimethylpiperidin-4-ol], for which the IC50 is 8.7 nM on LATS1, 4.9 nM at LATS2 and 39.5 nM on AKT.

The IC50 is the midpoint of a concentration-inhibition curve.
